For one series, the target named is T1, OATP1B1 (Homo sapiens, UniProt Q9Y6L6).
T1 construct: expressed in transfected cells; host or cells: A431
T1 sequence (Q9Y6L6 1-691): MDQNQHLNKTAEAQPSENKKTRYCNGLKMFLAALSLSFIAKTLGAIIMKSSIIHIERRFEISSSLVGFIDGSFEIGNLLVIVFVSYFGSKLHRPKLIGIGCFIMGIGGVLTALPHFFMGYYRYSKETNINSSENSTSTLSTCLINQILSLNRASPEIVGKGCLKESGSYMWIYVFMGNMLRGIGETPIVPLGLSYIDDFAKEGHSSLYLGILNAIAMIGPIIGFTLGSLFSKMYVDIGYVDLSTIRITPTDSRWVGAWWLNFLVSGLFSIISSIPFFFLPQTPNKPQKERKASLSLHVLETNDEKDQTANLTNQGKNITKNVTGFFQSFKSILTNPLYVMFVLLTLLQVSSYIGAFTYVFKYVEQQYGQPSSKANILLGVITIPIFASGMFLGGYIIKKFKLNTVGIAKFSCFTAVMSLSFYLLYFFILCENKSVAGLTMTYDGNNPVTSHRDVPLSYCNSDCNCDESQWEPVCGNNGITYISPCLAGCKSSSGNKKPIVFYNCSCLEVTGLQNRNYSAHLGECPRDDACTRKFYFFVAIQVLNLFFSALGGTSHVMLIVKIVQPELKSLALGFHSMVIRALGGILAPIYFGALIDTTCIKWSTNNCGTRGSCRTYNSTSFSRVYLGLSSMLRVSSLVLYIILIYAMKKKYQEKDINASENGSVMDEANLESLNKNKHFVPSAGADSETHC
Nature of the series: OATP1B1-mediated pyranine uptake in A431 cells overexpressing OATP1B1. The format is cell-based. As to the method: A431 cells overexpressing human OATPs, 1A2 (BC042452, HsCD00333163), 1B1 (Gene ID: AB026257), 1B3 (BC141525, HsCD00348132) or 2B1 (BC041095.1, HsCD00378878), or their mock transfected controls, were generated as previously described. Cells were cultured in Dulbecco’s Modified Eagle Medium (DMEM; Thermo Fischer Scientific, Waltham, MA, USA) supplemented with 10% fetal bovine serum, 2 mM L-glutamine, 100 units/mL penicillin and 100 µg/mL streptomycin, at 37 °C with 5% CO2.
The interaction between flavonoids and OATPs was investigated in an indirect assay employing the fluorescent dye substrates, pyranine and sulforhodamine 101 [51, 52]. Briefly, A431 cell overexpressing OATPs, 1A2, 1B1, 1B3 or 2B1, or their mock transfected controls, were seeded on 96-well plates in a density of 8x10^4 cells/well in 200 μL DMEM one day prior to the transport measurements. […] The reaction was started by the addition of 50 μL uptake buffer containing pyranine in a final concentration of 10 μM (OATP1B1) or 20 μM (OATP1B3 and OATP2B1), or 0.5 μM sulforhodamine 101 (OATP1A2). Thereafter, cells were incubated at 37°C for 15 min (OATP1B1 and OATP2B1), 10 min (OATP1A2), or 30 min (OATP1B3). The reactions were stopped by removing the supernatants, then the cells were washed three times with ice-cold PBS. Fluorescence (in 200 μL PBS/well) was determined employing an Enspire plate reader (Perkin Elmer, Waltham, MA) ex/em: 403/517 nm (pyranine) or 586/605 nm (sulforhodamine 101). OATP-dependent transport was calculated by extracting fluorescence measured in mock transfected cells. Transport activity was calculated based on the fluorescence signal in the absence (100%) of flavonoids. Experiments were repeated at least in three biological replicates. IC50 values were calculated by Hill1 fit, using the Origin Pro8.6 software ([…]).

The target in the next series is T2, MRP2 (Homo sapiens, UniProt Q92887).
T2 construct: made in house; host or cells: Sf9 insect cells (baculovirus)
Nature of the series: MRP2 vesicular transport of CDCF in Sf9 membrane vesicles. In kind it is biochemical. As to the method:
Experiments were performed in insect membrane vesicles, as describe previously. Human BCRP and MRP2 were expressed in Sf9 insect cells by baculoviruses. At the third day of infection, cells were collected and membrane vesicles were obtained by mechanical disruption and differential centrifugation. To get full activity for BCRP, the cholesterol levels of the vesicles were adjusted to the level of mammalian membranes. Vesicles were stored at -80°C, total protein content of preparations was measured by the Lowry method (used as a reference of the quantity). Membrane vesicles (50 μg protein/sample) were incubated at 37 °C for 10 min (without or with 4 mM of Mg-ATP) in 50 μL volume, in the presence of transporter specific fluorescent substrates (10 μM lucifer yellow (LY) for BCRP and 5 μM 5(6)-Carboxy-2′,7′-dichlorofluorescein (CDCF) for MRP2). Quality of membrane vesicles was confirmed applying known reference inhibitors (benzbromarone and Ko143). ATP dependent uptake of fluorescent substrates was examined in the presence of flavonoids (up to 50–200 μM). Each compound was dissolved in DMSO and solvent controls were applied in all experiments. […] After incubation, samples were rapidly filtered and washed on filter plate (MSFBN6B10, Millipore, Burlington, MA, USA). Accumulated substrates in vesicles were solved back from the filter by 100 μL of 10% sodium dodecyl sulfate and centrifuged into another plate. A 100-μL volume of fluorescence stabilizer was added to the samples (DMSO for LY, and 0.1 M NaOH for CDCF). Fluorescence of samples was measured by a plate reader (Victor X3 Perkin-Elmer, Waltham, MA, USA) at appropriate wavelengths (filters were λex = 405 nm and λem = 535 nm for LY as well as λex = 492 nm and λem = 635 nm for CDCF). ABC related transport was calculated by subtracting passive uptake measured without Mg-ATP (with Mg-AMP the same background was detected) from values measured in the presence of Mg-ATP.

Setting [1] is: 10 μM pyranine, 15 min, A431-OATP1B1 cells, read-out: IC50 for OATP1B1.
The mark [2] stands for this setting: vesicular uptake of 5 μM CDCF, read-out: IC50 for MRP2.

The IC50 is the point on the concentration scale where inhibition reaches its midpoint.

Each structure is given as a SMILES string. Like-named read-outs stand apart in the source and are kept apart here. Where only a bound is given, the exact number is not on record here.

T2 sequence (Q92887 whole entry): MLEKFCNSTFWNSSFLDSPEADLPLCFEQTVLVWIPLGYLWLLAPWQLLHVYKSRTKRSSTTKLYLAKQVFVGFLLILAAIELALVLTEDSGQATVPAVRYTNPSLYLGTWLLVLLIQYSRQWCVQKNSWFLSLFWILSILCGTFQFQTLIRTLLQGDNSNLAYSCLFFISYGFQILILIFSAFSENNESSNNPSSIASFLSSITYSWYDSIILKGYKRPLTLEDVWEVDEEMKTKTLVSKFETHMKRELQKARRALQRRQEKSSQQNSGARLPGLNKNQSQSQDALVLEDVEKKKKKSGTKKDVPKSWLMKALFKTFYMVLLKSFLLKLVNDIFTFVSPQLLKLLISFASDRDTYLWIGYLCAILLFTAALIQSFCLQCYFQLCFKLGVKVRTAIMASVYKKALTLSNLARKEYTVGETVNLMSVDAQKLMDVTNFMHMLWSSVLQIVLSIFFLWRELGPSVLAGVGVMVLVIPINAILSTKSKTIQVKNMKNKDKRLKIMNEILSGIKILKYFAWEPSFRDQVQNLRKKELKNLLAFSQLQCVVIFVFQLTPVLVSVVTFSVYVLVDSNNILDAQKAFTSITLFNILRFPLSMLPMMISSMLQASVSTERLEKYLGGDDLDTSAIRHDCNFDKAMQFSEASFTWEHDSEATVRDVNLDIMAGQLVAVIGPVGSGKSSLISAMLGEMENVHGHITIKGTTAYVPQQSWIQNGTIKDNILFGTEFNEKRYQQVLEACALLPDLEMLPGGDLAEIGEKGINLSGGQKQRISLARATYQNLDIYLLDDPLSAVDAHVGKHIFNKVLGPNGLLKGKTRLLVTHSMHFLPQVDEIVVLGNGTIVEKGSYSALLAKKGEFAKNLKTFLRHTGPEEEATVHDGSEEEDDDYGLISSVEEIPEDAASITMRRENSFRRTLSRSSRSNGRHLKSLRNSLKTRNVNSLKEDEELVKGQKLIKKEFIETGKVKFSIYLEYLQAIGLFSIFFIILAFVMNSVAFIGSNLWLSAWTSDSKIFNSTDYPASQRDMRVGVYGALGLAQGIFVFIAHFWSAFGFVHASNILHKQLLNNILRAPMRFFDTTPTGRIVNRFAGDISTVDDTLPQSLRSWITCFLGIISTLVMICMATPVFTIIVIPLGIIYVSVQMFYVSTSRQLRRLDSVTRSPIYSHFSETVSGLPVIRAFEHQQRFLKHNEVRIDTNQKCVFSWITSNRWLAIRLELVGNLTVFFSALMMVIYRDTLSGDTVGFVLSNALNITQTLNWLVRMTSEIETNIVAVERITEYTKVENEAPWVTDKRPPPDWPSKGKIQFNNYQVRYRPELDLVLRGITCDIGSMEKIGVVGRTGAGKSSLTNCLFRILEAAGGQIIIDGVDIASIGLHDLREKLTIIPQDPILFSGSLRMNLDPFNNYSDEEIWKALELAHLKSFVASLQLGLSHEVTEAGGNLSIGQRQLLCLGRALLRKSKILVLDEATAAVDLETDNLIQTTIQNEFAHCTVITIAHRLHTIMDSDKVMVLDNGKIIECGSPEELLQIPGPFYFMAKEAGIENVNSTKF

With `COc1cc(-c2oc3cc(O)cc(O)c3c(=O)c2O)ccc1O` [IR, isorhamnetin], the 50% inhibitory concentration (IC50) on OATP1B1 is 3.12 µM; at MRP2, > 30 µM. The “concentration causing statistically significant (p < 0.01) inhibition, OATP1B1” value at OATP1B1 (10 μM pyranine, 15 min) was 3.1 µM.

With `O=c1c(O)c(-c2ccc(O)c(O)c2)oc2cc(O)cc(O)c12` [Q, quercetin], the “concentration causing statistically significant (p < 0.01) inhibition, OATP1B1” value on OATP1B1 (10 μM pyranine, 15 min) was determined as 1.3 µM. In addition, the IC50 on OATP1B1 (setting [1]) was 1.55 µM; on MRP2 (setting [2]), > 30 µM.

As to `O=C(O)C1OC(Oc2c(-c3ccc(O)c(O)c3)oc3cc(O)cc(O)c3c2=O)C(O)C(O)C1O` (stereo not drawn) [Q3G, quercetin-3-glucuronide], at OATP1B1 (10 μM pyranine, 15 min), the “concentration causing statistically significant (p < 0.01) inhibition, OATP1B1” value came out at 1.6 µM. Moreover, the IC50 on OATP1B1 (setting [1]) was 4.05 µM; on MRP2 (setting [2]), 24.2 µM.

As to `O=c1c(O)c(-c2ccc(O)c(OS(=O)(=O)O)c2)oc2cc(O)cc(O)c12` [Q3′S, quercetin-3′-sulfate], at OATP1B1 (10 μM pyranine, 15 min), the “concentration causing statistically significant (p < 0.01) inhibition, OATP1B1” value worked out at 0.3 µM. For the same molecule, the IC50 was 0.33 µM at OATP1B1 (setting [1]) and 19.6 µM on MRP2 (setting [2]).

For the molecule `COc1cc(-c2oc3cc(O)cc(O)c3c(=O)c2OC2OC(C(=O)O)C(O)C(O)C2O)ccc1O` (stereo not drawn) [I3G, isorhamnetin-3-glucuronide], the “concentration causing statistically significant (p < 0.01) inhibition, OATP1B1” value on OATP1B1 (10 μM pyranine, 15 min) is 1.6 µM. Also, the IC50 on OATP1B1 (setting [1]) was determined as 5.63 µM; on MRP2 (setting [2]), 14.9 µM.
